In US9133168B2, “Pyrimidine derivatives, preparation thereof, and pharmaceutical use thereof as akt(pkb) phosphorylation inhibitors” (SANOFI, priority 2010, dated 2015):
pIC50: −log10 of the molar value.

Test system: AKT protein phosphorylated on serine 473 (P-AKT-S473) in PC3 human prostate carcinoma cells
Assay: pAKT expression in PC3 human prostate carcinoma cells, MSD Multi-spot Biomarker detection (Test A)
Type: cell-based
Conditions: Homo sapiens, PC-3, PC3 cells, 1 to 2 h incubation, P-AKT-S473, absolute IC50, mean of two independent experiments
Procedure: The inhibitory activity of the molecules on AKT phosphorylation is measured using the MSD Multi-spot Biomarker detection technique from Meso Scale Discovery also described below. […] The primary antibody specific for […]) is coated on to an electrode in each well of the 96-well plates of the MSD kit: after the addition of a protein lysate to each well, the signal is visualized by adding a secondary detection antibody labeled with an electrochemiluminescent compound. The procedure followed is the one described in the kit. […] On day 2, the cells are incubated in the presence or absence of the test products for 1 to 2 h at 37° C. in the presence of 5% CO2. The molecules, diluted in dimethyl sulfoxide (DMSO Sigma #D2650), are added from a 20-times concentrated stock solution, the final percentage of DMSO being 0.1%. The molecules are tested either at a single concentration of less than or equal to 10 μM, or at increasing concentrations in a range that can extend from less than 1 nM to 10 μM. After this incubation, the cells are lysed for the preparation of the proteins. […] At this stage, the plates containing the lysates can be frozen at -20° C. or at -80° C. The wells of the 96 well plates of the MSD kit are saturated for 1 h at ambient temperature with the blocking solution of the MSD kit. Four washes are carried out with 150 μl of Tris Wash Buffer of the MSD kit. The lysates previously prepared are transferred into the 96-well multi-spot plates of the MSD kit and incubated for 1 h at ambient temperature, with shaking. Four washes are carried out with 150 μl of Tris Wash Buffer of the MSD kit. 25 μl of the MSD sulfo-tag detection antibody solution are added to the wells and incubated for 1 h at ambient temperature, with shaking. Four washes are carried out with 150 μl of Tris Wash Buffer of the MSD kit. 150 μl of Read Buffer of the MSD kit are added to the wells and the plates are read immediately on the S12400 instrument from Meso Scale Discovery. The instrument measures a signal for each well. Wells without cells and containing the lysis buffer serve to determine the background noise that will be subtracted from all the measurements (min). The wells containing cells in the absence of product and in the presence of 0.1% DMSO are considered to be the 100% signal (max). The percentage inhibition is calculated for each concentration of product tested, according to the following formula: (1-((test-min)/(max-min)))×100. […] Two independent experiments make it possible to calculate the mean of the IC50 values.

| SMILES | pIC50 |
| --- | --- |
| CC(C)C1Cc2ccccc2N1C(=O)Cc1nc(N2CCOCC2)cc(=O)[nH]1 (single isomer, unassigned; (-)) [Example 39c, (−)-2-[2-(2-isopropyl-2,3-dihydroindol-1-yl)-2-oxoethyl]-6-morpholin-4-yl-3H-pyrimidin-4-one] | 8.40 |
| CC(F)(C(=O)N1CCc2c(F)cccc21)c1nc(N2CCOCC2)cc(=O)[nH]1 (single isomer, unassigned; (-)) [Example 44c, (−)-2-[2-fluoro-1-(4-fluoro-2,3-dihydro-1H-indol-1-yl)-1-oxopropan-2-yl]-6-(morpholin-4-yl)pyrimidin-4(3H)-one] | 6.85 |
| O=C(Cc1nc(N2CCOCC2)c(F)c(=O)[nH]1)N1CCc2c(F)cccc21 [Example 1a, 5-fluoro-2-[2-(4-fluoro-2,3-dihydro-1H-indol-1-yl)-2-oxoethyl]-6-(morpholin-4-yl)pyrimidin-4(3H)-one] | 7.66 |
| O=C(Cc1nc(N2CCOCC2)cc(=O)[nH]1)N1CC2(CC2)c2ccccc21 [Example 1d, 6-(morpholin-4-yl)-2-[2-oxo-2-(spiro[cyclopropan-1,3′-indol]-1′(2′H)-yl)ethyl]pyrimidin-4(3H)-one] | 7.59 |
| C[C@H]1Cc2ccccc2N1C(=O)Cc1nc(N2CCOCC2)cc(=S)[nH]1 [Example 1e, 1-((S)-2-methyl-2,3-dihydroindol-1-yl)-2-(4-morpholin-4-yl-6-thioxo-1,6-dihydropyrimidin-2-yl)ethanone] | 7.66 |
| CC(C(=O)N1CCc2c(F)cccc21)c1nc(N2CCOCC2)c(F)c(=O)n1C (stereo not shown) [Example 2a, 5-fluoro-2-[1-(4-fluoro-2,3-dihydro-1H-indol-1-yl)-1-oxopropan-2-yl]-3-methyl-6-(morpholin-4-yl)pyrimidin-4(3H)-one] | 6.03 |
| O=C(Cc1nc(N2CCOCC2)cc(=O)[nH]1)N1CCc2c(-c3ccccc3)cccc21 [Example 2d, 6-(morpholin-4-yl)-2-[2-oxo-2-(4-phenyl-2,3-dihydro-1H-indol-1-yl)ethyl]pyrimidin-4(3H)-one] | 7.62 |
| C[C@H]1Cc2ccccc2N1C(=S)Cc1nc(N2CCOCC2)cc(=S)[nH]1 [Example 2e, 2-[2-((S)-2-methyl-2,3-dihydroindol-1-yl)-2-thioxoethyl]-6-morpholin-4-yl-3H-pyrimidine-4-thione] | 8.40 |
| Cn1c(CC(=O)N2CCc3c(F)cccc32)nc(N2CCOCC2)c(F)c1=O [Example 3a, 5-fluoro-2-[2-(4-fluoro-2,3-dihydro-1H-indol-1-yl)-2-oxoethyl]-3-methyl-6-(morpholin-4-yl)pyrimidin-4(3H)-one] | 6.80 |
| O=C(Cc1nc(N2CCOCC2)cc(=O)[nH]1)N1CCc2c(OC(F)(F)F)cccc21 [Example 3d, 6-(morpholin-4-yl)-2-{2-oxo-2-[4-(trifluoromethoxy)-2,3-dihydro-1H-indol-1-yl]ethyl}pyrimidin-4(3H)-one] | 7.27 |
| C[C@@H]1Cc2ccccc2N1C(=O)Cc1nc(N2CCOCC2)cc(=S)[nH]1 [Example 3e, 1-((R)-2-methyl-2,3-dihydroindol-1-yl)-2-(4-morpholin-4-yl-6-thioxo-1,6-dihydropyrimidin-2-yl)ethanone] | 8.10 |
| C[C@@H]1Cc2ccccc2N1C(=O)Cc1nc(N2CCOCC2)c(F)c(=O)[nH]1 [Example 4a, 5-fluoro-2-{2-[(2R)-2-methyl-2,3-dihydro-1H-indol-1-yl]-2-oxoethyl}-6-(morpholin-4-yl)pyrimidin-4(3H)-one] | 6.30 |
| Cn1c(CC(=O)N2CC(C)(C)c3c(Cl)cccc32)nc(N2CCOCC2)cc1=O [Example 4c, 2-[2-(4-chloro-3,3-dimethyl-2,3-dihydro-1H-indol-1-yl)-2-oxoethyl]-3-methyl-6-(morpholin-4-yl)pyrimidin-4(3H)-one] | 7.46 |
| Cn1c(CC(=O)N2CCc3c2cccc3C(F)(F)F)nc(N2CCOCC2)cc1=O [Example 4d, 3-methyl-6-(morpholin-4-yl)-2-{2-oxo-2-[4-(trifluoromethyl)-2,3-dihydro-1H-indol-1-yl]ethyl}pyrimidin-4(3H)-one] | 7.20 |
| C[C@H]1Cc2ccccc2N1C(=O)Cc1nc(N2CCOCC2)cc(=S)n1C [Example 4e, 1-((S)-2-methyl-2,3-dihydroindol-1-yl)-2-(1-methyl-4-morpholin-4-yl-6-thioxo-1,6-dihydropyrimidin-2-yl)ethanone] | 7.39 |
| C[C@H]1Cc2ccccc2N1C(=O)Cc1nc(N2CCOCC2)c(F)c(=O)[nH]1 [Example 5a, 5-fluoro-2-{2-[(2S)-2-methyl-2,3-dihydro-1H-indol-1-yl]-2-oxoethyl}-6-(morpholin-4-yl)pyrimidin-4(3H)-one] | 7.82 |
| CC1(C)CN(C(=O)Cc2nc(N3CCOCC3)cc(=O)[nH]2)c2cccc(Cl)c21 [Example 5c, 2-[2-(4-chloro-3,3-dimethyl-2,3-dihydro-1H-indol-1-yl)-2-oxoethyl]-6-(morpholin-4-yl)pyrimidin-4(3H)-one] | 7.85 |
| O=C(Cc1nc(N2CCOCC2)cc(=O)[nH]1)N1CCc2c1cccc2C(F)(F)F [Example 5d, 6-(morpholin-4-yl)-2-{2-oxo-2-[4-(trifluoromethyl)-2,3-dihydro-1H-indol-1-yl]ethyl}pyrimidin-4(3H)-one] | 8.05 |
| C[C@@H]1Cc2ccccc2N1C(=O)Cc1nc(N2CCOCC2)cc(=S)n1C [Example 5e, 1-((R)-2-methyl-2,3-dihydroindol-1-yl)-2-(1-methyl-4-morpholin-4-yl-6-thioxo-1,6-dihydropyrimidin-2-yl)ethanone] | 7.15 |

Same assay, conditions: PC3 cells, 1 to 2 h incubation, P-AKT-S473, absolute IC50, mean of two independent experiments

| SMILES | pIC50 |
| --- | --- |
| CC1Cc2c(OC(F)F)cccc2N1C(=O)Cc1nc(N2CCOCC2)cc(=O)n1C (single isomer, unassigned; (-)) [Example 32d, (−)-2-{2-[4-(difluoromethoxy)-2-methyl-2,3-dihydro-1H-indol-1-yl]-2-oxoethyl}-3-methyl-6-(morpholin-4-yl)pyrimidin-4(3H)-one] | 7.22 |
| CC1Cc2c(Cl)cccc2N1C(=O)Cc1nc(N2CCOCC2)cc(=O)n1C (single isomer, unassigned; (-)) [Example 34c, (−)-2-{2-[4-chloro-2-methyl-2,3-dihydro-1H-indol-1-yl]-2-oxoethyl}-3-methyl-6-(morpholin-4-yl)pyrimidin-4(3H)-one] | 6.62 |
| O=C(Cc1nc(N2CCOCC2)cc(=O)[nH]1)N1c2ccccc2CC1C1CC1 (single isomer, unassigned; (-)) [Example 35d, (−)-2-[2-(2-cyclopropyl-2,3-dihydroindol-1-yl)-2-oxoethyl]-6-morpholin-4-yl-3H-pyrimidin-4-one] | 8.30 |
| CC1Cc2c(cccc2C(F)(F)F)N1C(=O)Cc1nc(N2CCOCC2)cc(=O)[nH]1 (single isomer, unassigned; (-)) [Example 37d, (−)-2-{2-[2-methyl-4-(trifluoromethyl)-2,3-dihydro-1H-indol-1-yl]-2-oxoethyl}-6-(morpholin-4-yl)pyrimidin-4(3H)-one] | 8.70 |
| CC1Cc2c(ccc(F)c2Cl)N1C(=O)Cc1nc(N2CCOCC2)cc(=O)[nH]1 (single isomer, unassigned; (-)) [Example 38c, (−)-2-{2-[4-chloro-5-fluoro-2-methyl-2,3-dihydro-1H-indol-1-yl]-2-oxoethyl}-6-(morpholin-4-yl)pyrimidin-4(3H)-one] | 9.00 |
| CCC1Cc2ccccc2N1C(=O)Cc1nc(N2CCOCC2)cc(=O)[nH]1 (single isomer, unassigned; (-)) [Example 43c, (−)-2-[2-(2-ethyl-2,3-dihydroindol-1-yl)-2-oxoethyl]-6-morpholin-4-yl-3H-pyrimidin-4-one] | 7.85 |
| CC1CN(c2cc(=O)[nH]c(CC(=O)Nc3ccc(F)cc3)n2)CCO1 (stereo not shown) [Example 1b, N-(4-fluorophenyl)-2-[4-(2-methylmorpholin-4-yl)-6-oxo-1,6-dihydropyrimidin-2-yl]acetamide] | 7.59 |
| CC1Cc2c(Cl)cccc2N1C(=O)Cc1nc(N2CCOCC2)cc(=O)[nH]1 (stereo not shown) [Example 1c, 2-[2-(4-chloro-2-methyl-2,3-dihydro-1H-indol-1-yl)-2-oxoethyl]-6-(morpholin-4-yl)pyrimidin-4(3H)-one] | 8.30 |
| O=C(Cc1nc(N2CCOC(CF)C2)cc(=O)[nH]1)Nc1ccc(F)cc1 (stereo not shown) [Example 3b, 2-[4-(2-fluoromethylmorpholin-4-yl)-6-oxo-1,6-dihydropyrimidin-2-yl]-N-(4-fluorophenyl)acetamide] | 6.57 |
